Results filed as inconclusive are left out. Calls of active or inactive are those of the source.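 The calls were made as follows: active = fitted curve crosses a set inhibition level at a dose up to twice the top tested dose; inconclusive = flat curve with moderate inhibition, or an unreliable curve fit; inactive = the rest, including signal rising instead of falling.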
Test: TNFa-induced NF-kB reporter signal decrease – HEK293 LMP1 reporter cells, dry powder, set 2, selectivity assay for EBV LMP1 NF-kB inhibitor project, dose response (AID 624369)
Details: HEK293 LMP1 TES2 NF-kB luciferase reporter, 16 h

**Q.** Which activity change, negative = inhibition (at 35 µM (top of the series)) does the source give for `C[C@H]1CN([C@@H](C)CO)C(=O)c2c(c3ccccc3n2C)-c2ccccc2CO[C@@H]1CN(C)C(=O)Nc1ccc(F)cc1` here?
**A.** 1.28% (inactive)

**Q.** With `C[C@@H](NC(=O)C[C@@H]1C=C[C@H](NC(=O)Cc2ccccn2)[C@@H](CO)O1)c1ccccc1` as the compound, how does the activity change, negative = inhibition (at 35 µM (top of the series)) read?
**A.** 4.33% (inactive)

**Q.** Which activity change, negative = inhibition (at 35 µM (top of the series)) does the source give for `COc1cccc(S(=O)(=O)N(C)C[C@H]2Oc3cc(C4=CCCCC4)ccc3S(=O)(=O)N([C@@H](C)CO)C[C@@H]2C)c1` here?
**A.** 12% (inactive)

**Q.** For `C[C@@H](NC(=O)C[C@@H]1C=C[C@@H](NC(=O)Cc2ccccn2)[C@H](CO)O1)c1ccccc1`, which activity change, negative = inhibition (at 35 µM (top of the series)) is on record?
**A.** -0.205% (inactive)

**Q.** With `C[C@H](NC(=O)C[C@@H]1C=C[C@H](NC(=O)Cc2ccccn2)[C@H](CO)O1)c1ccccc1` as the compound, how does the activity change, negative = inhibition (at 30 µM (top of the series)) read?
**A.** -0.606% (inactive)

**Q.** For `Cc1noc(C)c1S(=O)(=O)Nc1ccc2c(c1)C(=O)N([C@H](C)CO)C[C@H](C)[C@H](CN(C)Cc1ccc(C(F)(F)F)cc1)OCCCC[C@@H](C)O2`, which activity change, negative = inhibition (at 35 µM (top of the series)) is on record?
**A.** 62.1% (inactive)

**Q.** Which activity change, negative = inhibition (at 35 µM (top of the series)) does the source give for `C[C@H](NC(=O)C[C@H]1C=C[C@@H](NC(=O)Cc2ccccn2)[C@@H](CO)O1)c1ccccc1` here?
**A.** -2.31% (inactive)

**Q.** With `O=C(Cc1ccccn1)NCC[C@H]1CC[C@H](NC(=O)Nc2ccc(Cl)cc2)[C@@H](CO)O1` as the compound, how does the activity change, negative = inhibition (at 35 µM (top of the series)) read?
**A.** -0.241% (inactive)

**Q.** Which activity change, negative = inhibition (at 35 µM (top of the series)) does the source give for `COc1ccccc1C(=O)Nc1ccc2c(c1)C(=O)N(C)[C@@H]1CC[C@H](CC(=O)NCCc3ccncc3)O[C@H]1CO2` here?
**A.** -5.47% (inactive)

**Q.** Which activity change, negative = inhibition (at 35 µM (top of the series)) does the source give for `O=C(Nc1ccc(C(F)(F)F)cc1)Nc1ccc2c(c1)[C@H]1C[C@@H](CC(=O)N3CCc4ccccc4C3)O[C@@H](CO)[C@H]1O2` here?
**A.** 0.365% (inactive)

**Q.** With `C[C@@H]1CN([C@H](C)CO)C(=O)Cc2cc(NC(=O)Cc3ccccc3)ccc2O[C@@H]1CN(C)Cc1ccc(C(F)(F)F)cc1` as the compound, how does the activity change, negative = inhibition (at 16 µM (top of the series)) read?
**A.** 23.7% (inactive)

**Q.** Which activity change, negative = inhibition (at 35 µM (top of the series)) does the source give for `C[C@H](CO)N1C[C@H](C)[C@H](CN(C)Cc2ccc(Oc3ccccc3)cc2)Oc2ccc(NC(=O)CCCN(C)C)cc2C1=O` here?
**A.** 20.6% (inactive)

**Q.** For `C[C@H](NC(=O)C[C@@H]1C=C[C@H](NC(=O)Cc2ccccn2)[C@@H](CO)O1)c1ccccc1`, which activity change, negative = inhibition (at 35 µM (top of the series)) is on record?
**A.** -2.15% (inactive)

**Q.** For `COc1cccc(S(=O)(=O)N(C)C[C@@H]2Oc3cc(C4=CCCCC4)ccc3S(=O)(=O)N([C@H](C)CO)C[C@H]2C)c1`, which activity change, negative = inhibition (at 35 µM (top of the series)) is on record?
**A.** -5.06% (inactive)

**Q.** Which activity change, negative = inhibition (at 35 µM (top of the series)) does the source give for `O=C(C[C@@H]1C[C@@H]2c3cc(NS(=O)(=O)c4ccc(F)cc4)ccc3O[C@@H]2[C@H](CO)O1)NC1CCCCC1` here?
**A.** 12.6% (inactive)

**Q.** Which activity change, negative = inhibition (at 35 µM (top of the series)) does the source give for `C[C@H](NC(=O)C[C@H]1C[C@@H]2c3cc(NC(=O)c4cccnc4)ccc3O[C@@H]2[C@@H](CO)O1)c1ccccc1` here?
**A.** -8.72% (inactive)

**Q.** With `CO[C@H]1CN(C)C(=O)c2ccc(NC(=O)C3CC3)cc2OC[C@H](C)N(C(=O)c2ccccn2)C[C@H]1C` as the compound, how does the activity change, negative = inhibition (at 35 µM (top of the series)) read?
**A.** -5.44% (inactive)

**Q.** For `COC(=O)C[C@@H]1C[C@@H]2c3cc(NC(=O)CN(C)C)ccc3O[C@@H]2[C@@H](CO)O1`, which activity change, negative = inhibition (at 35 µM (top of the series)) is on record?
**A.** 4.43% (inactive)

**Q.** For `C[C@@H]1CN([C@H](C)CO)C(=O)c2c(c3ccccc3n2C)-c2ccccc2CO[C@H]1CN(C)C(=O)Nc1ccc(F)cc1`, which activity change, negative = inhibition (at 35 µM (top of the series)) is on record?
**A.** 30% (inactive)

**Q.** For `O=C(Cc1ccccn1)NCC[C@@H]1CC[C@H](NC(=O)Nc2ccc(Cl)cc2)[C@@H](CO)O1`, which activity change, negative = inhibition (at 35 µM (top of the series)) is on record?
**A.** 0.116% (inactive)

**Q.** Which activity change, negative = inhibition (at 35 µM (top of the series)) does the source give for `O=C(Cc1ccccn1)NCC[C@H]1CC[C@H](NC(=O)Nc2ccc(Cl)cc2)[C@H](CO)O1` here?
**A.** -3.5% (inactive)

**Q.** For `O=C(C[C@H]1C[C@@H]2c3cc(NS(=O)(=O)c4ccc(F)cc4)ccc3O[C@@H]2[C@H](CO)O1)NC1CCCCC1`, which activity change, negative = inhibition (at 35 µM (top of the series)) is on record?
**A.** -5.14% (inactive)

**Q.** With `C[C@@H](NC(=O)C[C@@H]1C=C[C@@H](NC(=O)Cc2ccccn2)[C@@H](CO)O1)c1ccccc1` as the compound, how does the activity change, negative = inhibition (at 35 µM (top of the series)) read?
**A.** -4.92% (inactive)

**Q.** For `O=C(Cc1ccccn1)NCC[C@@H]1CC[C@H](NC(=O)Nc2ccc(Cl)cc2)[C@H](CO)O1`, which activity change, negative = inhibition (at 35 µM (top of the series)) is on record?
**A.** 1.35% (inactive)

**Q.** Which activity change, negative = inhibition (at 35 µM (top of the series)) does the source give for `C[C@H](NC(=O)C[C@@H]1C=C[C@@H](NC(=O)Cc2ccccn2)[C@H](CO)O1)c1ccccc1` here?
**A.** -3.22% (inactive)

**Q.** With `CS(=O)(=O)Nc1ccc2c(c1)[C@H]1C[C@@H](CC(=O)NCC3CC3)O[C@@H](CO)[C@H]1O2` as the compound, how does the activity change, negative = inhibition (at 35 µM (top of the series)) read?
**A.** -2.86% (inactive)

**Q.** With `COC(=O)C[C@H]1C[C@H]2c3cc(NC(=O)CN(C)C)ccc3O[C@H]2[C@H](CO)O1` as the compound, how does the activity change, negative = inhibition (at 35 µM (top of the series)) read?
**A.** 4.38% (inactive)

**Q.** For `O=C(C[C@@H]1C[C@@H]2c3cc(NC(=O)c4cccnc4)ccc3O[C@@H]2[C@H](CO)O1)NCC(F)(F)F`, which activity change, negative = inhibition (at 35 µM (top of the series)) is on record?
**A.** -2.45% (inactive)

**Q.** Which activity change, negative = inhibition (at 35 µM (top of the series)) does the source give for `C[C@H]1CN([C@@H](C)CO)C(=O)Cc2cc(NC(=O)Cc3ccccc3)ccc2O[C@H]1CN(C)Cc1ccc(C(F)(F)F)cc1` here?
**A.** 63.2% (inactive)

**Q.** With `O=C(Cc1ccccn1)NCC[C@H]1CC[C@@H](NC(=O)Nc2ccc(Cl)cc2)[C@@H](CO)O1` as the compound, how does the activity change, negative = inhibition (at 35 µM (top of the series)) read?
**A.** -6.43% (inactive)

**Q.** With `C[C@@H](NC(=O)C[C@@H]1C=C[C@H](NC(=O)Cc2ccccn2)[C@H](CO)O1)c1ccccc1` as the compound, how does the activity change, negative = inhibition (at 35 µM (top of the series)) read?
**A.** -2.15% (inactive)

**Q.** With `O=C(Cc1ccccn1)NCC[C@@H]1CC[C@@H](NC(=O)Nc2ccc(Cl)cc2)[C@@H](CO)O1` as the compound, how does the activity change, negative = inhibition (at 35 µM (top of the series)) read?
**A.** 2.08% (inactive)

**Q.** Which activity change, negative = inhibition (at 35 µM (top of the series)) does the source give for `CS(=O)(=O)Nc1ccc2c(c1)[C@@H]1C[C@H](CC(=O)NCC3CC3)O[C@H](CO)[C@@H]1O2` here?
**A.** 6.19% (inactive)

**Q.** With `CO[C@@H]1CN(C)C(=O)c2ccc(NC(C)=O)cc2OC[C@@H](C)N(Cc2ccccc2F)C[C@H]1C` as the compound, how does the activity change, negative = inhibition (at 35 µM (top of the series)) read?
**A.** 3.06% (inactive)

**Q.** For `O=C(Cc1ccccn1)NCC[C@@H]1CC[C@@H](NC(=O)Nc2ccc(Cl)cc2)[C@H](CO)O1`, which activity change, negative = inhibition (at 35 µM (top of the series)) is on record?
**A.** 1.95% (inactive)

**Q.** For `C[C@H](CO)N1C[C@H](C)[C@H](CN(C)C(=O)NC2CCCCC2)Oc2cc(/C=C/c3ccccc3)ccc2S1(=O)=O`, which activity change, negative = inhibition (at 35 µM (top of the series)) is on record?
**A.** -10.3% (inactive)

**Q.** With `C[C@@H]1CN([C@H](C)CO)C(=O)Cc2cc(NC(=O)Cc3ccccc3)ccc2O[C@H]1CN(C)Cc1ccc(C(F)(F)F)cc1` as the compound, how does the activity change, negative = inhibition (at 35 µM (top of the series)) read?
**A.** 2.66% (inactive)

**Q.** With `C[C@@H]1CN([C@H](C)CO)C(=O)c2c(c3ccccc3n2C)-c2ccccc2CO[C@@H]1CN(C)C(=O)Nc1ccc(F)cc1` as the compound, how does the activity change, negative = inhibition (at 35 µM (top of the series)) read?
**A.** -1.47% (inactive)

**Q.** For `C[C@@H](NC(=O)C[C@H]1C=C[C@H](NC(=O)Cc2ccccn2)[C@H](CO)O1)c1ccccc1`, which activity change, negative = inhibition (at 35 µM (top of the series)) is on record?
**A.** 3.96% (inactive)

**Q.** Which activity change, negative = inhibition (at 35 µM (top of the series)) does the source give for `COc1cccc(S(=O)(=O)N(C)C[C@H]2Oc3cc(C4=CCCCC4)ccc3S(=O)(=O)N([C@H](C)CO)C[C@H]2C)c1` here?
**A.** 26.9% (inactive)

**Q.** For `COc1cccc(S(=O)(=O)N(C)C[C@@H]2Oc3cc(C4=CCCCC4)ccc3S(=O)(=O)N([C@@H](C)CO)C[C@H]2C)c1`, which activity change, negative = inhibition (at 35 µM (top of the series)) is on record?
**A.** -6.23% (inactive)

**Q.** For `CN(C)c1ccc2c(c1)[C@@H]1C[C@@H](CC(=O)NCc3ccc(Oc4ccccc4)cc3)O[C@@H](CO)[C@@H]1O2`, which activity change, negative = inhibition (at 35 µM (top of the series)) is on record?
**A.** -31.8% (inactive)

**Q.** For `C[C@H](CO)N1C[C@H](C)[C@@H](CN(C)S(=O)(=O)c2cccc(F)c2)Oc2ncc(C#CC3CCCCC3)cc2C1=O`, which activity change, negative = inhibition (at 35 µM (top of the series)) is on record?
**A.** 1.93% (inactive)

**Q.** With `C[C@@H]1CN([C@@H](C)CO)C(=O)Cc2cc(NC(=O)Cc3ccccc3)ccc2O[C@H]1CN(C)Cc1ccc(C(F)(F)F)cc1` as the compound, how does the activity change, negative = inhibition (at 35 µM (top of the series)) read?
**A.** 29.3% (inactive)

**Q.** Which activity change, negative = inhibition (at 35 µM (top of the series)) does the source give for `C[C@@H](NC(=O)C[C@H]1C=C[C@@H](NC(=O)Cc2ccccn2)[C@H](CO)O1)c1ccccc1` here?
**A.** -3.95% (inactive)

Reference: PubChem BioAssay AID624369 (Broad Institute, 2012)
